Positions of bridges follow the written chain, without caps; N, C: chain ends.
Test system: mice with nephrotoxic serum nephritis
Assay: Nephrotoxic serum nephritis (NTN) in CD1 mice
Format: in vivo
Source text: FIG. 59A-FIG. 59M AA-123 Reverses Renal Fibrosis in Mice with Nephrotoxic Serum Nephritis. FIG. 59A-FIG. 59D. Representative Masson's trichrome staining picture of kidney sections from untreated control mice (FIG. 59A); 6 weeks NTN (FIG. 59B); 9 weeks post NTN (FIG. 59C); and 9 weeks NTN with THR-123 administered starting at 6 weeks NTN (FIG. 59D), Original magnification ×200. FIG. 59E-FIG. 59G. Morphometric analysis from control mice (0 weeks) (n=5), mice after 1 (n=6), 3 (n=8), and 6 weeks following induction of NTN (n=6), and mice at 9 weeks NTN with THR-123 administered starting 6 weeks NTN (THR-123 (6-9W) (n=6)), assessing percent of glomerulosclerosis score (FIG. 59E), tubular atrophy index (FIG. 59F), and fibrosis index (FIG. 59G). FIG. 59H. Blood Urea Nitrogen measurement for mice 6 weeks NTN (n=3), 9 weeks NTN (n=5), and 9 weeks NTN with THR-123 administered starting at 6 weeks NTN (n=5) FIG. 59I-FIG. 59L. E-cadherin/FSP1 immunolabeling of kidney from control untreated mice (FIG. 59I), 6 weeks NTN (FIG. 59J), 9 weeks NTN (FIG. 59K), and 9 weeks NTN with THR-123 administered starting at 6 weeks NTN (FIG. 59L). Representative results are shown. FIG. 59M. Percent of E-cadherin/FSP1 double positive tubule was assessed by counting the number of double-labeled tubules, 500 tubules per slide, 5 slides per experimental group. Data are expressed as mean±s.e.m. in the graph.
NTN is induced in C57BL6 mice by pre-immunizing with a subcutaneous injection of normal sheep IgG (200 μg) in complete Freund's adjuvant (day 1) followed by intravenous injection of nephrotoxic serum injection (50 μl, from day 5 to day 7). Mice were sacrificed at 1, 3, 6, 9 weeks after induction of NTN. Total RNA was isolated from the kidney by Trizol/Invitrogen PureLink RNA Mini Kit for RNA extraction. Ten nanogram of total RNA was used for generating complementary cDNA using the TaqMan One-Step RT-PCR Master Mix (Applied Biosystems, Foster City, Calif.). Quantitative PCR was performed to analyze the gene expression profile of BMP7, BMP receptors Alk2, Alk-3, Alk6 and BMPR II, and to BMP-binding proteins chordin, criml, fibrillinl, follistatin, KCP, USAG1, gremlin and noggin are analyzed (Table: Primer Sequences (below)) using ABIprism 7000 (Applied Biosystems).
NTN is induced in CD1 mice by the method described above. Six weeks after NTN induction, THR-123 (p.o. 5 mg/Kg/day) are started until 9 weeks. Mice are sacrificed at week 1, week 3, week 6 and week 9.
For the analysis of glomerulosclerosis, 20 glomeruli per each mouse were randomly picked and each glomerulus was evaluated according to the following scale: no sclerosis 0, 0 to ¼ of a glomerular surface area was sclerosed 1, ¼ to ½ was sclerosed 2, ½ to ¾ was sclerosed 3 and more than ¾ was sclerosed or with crescent 4. A glomerulosclerosis score was calculated as an arithmetic mean of these numbers for each mouse. The glomerulosclerosis scores from all mice were arbitrarily divided into 4 groups; that is no disease, mild, moderate and severe. The percentage of mice with these 4 groups was calculated.
For tubular atrophy score, ten 200× visual fields were randomly selected for each slide and tubular atrophy was assessed according to the following scale: no atrophy 0, 0 to ¼ of a visual field was occupied by atrophied tubules 1, ¼ to ½ 2, ½ to ¾ 3 and more than ¾ 4. A tubular atrophy score was then calculated as an arithmetic mean of these numbers per each mouse. The tubular atrophy scores from all mice were arbitrarily divided into 4 groups; that is no disease, mild, moderate and severe. The percentage of mice with these 4 groups was calculated and shown on the graph.
For the analysis of interstitial fibrosis, ten 200× visual fields were also selected randomly for each Masson trichrome stained kidney section and interstitial fibrosis was evaluated according to the following scale: no fibrosis 0, 0 to ¼ of a visual field was affected by interstitial fibrosis 1, ¼ to ½ 2, ½ to ¾ 3 and more than ¾ 4. […]

Q: What does the source list for “(H)-CYFDDSSNVLCKKYRS-(OH) (H-CYFDDSSNVLCKKYRS-OH; disulfide 1-11; SMILES CC(C)C[C@@H]1NC(=O)[C@H](C(C)C)NC(=O)[C@H](CC(N)=O)NC(=O)[C@H](CO)NC(=O)[C@H](CO)NC(=O)[C@H](CC(=O)O)NC(=O)[C@H](CC(=O)O)NC(=O)[C@H](Cc2ccccc2)NC(=O)[C@H](Cc2ccc(O)cc2)NC(=O)[C@@H](N)CSSC[C@@H](C(=O)N[C@@H](CCCCN)C(=O)N[C@@H](CCCCN)C(=O)N[C@@H](Cc2ccc(O)cc2)C(=O)N[C@@H](CCCNC(=N)N)C(=O)N[C@@H](CO)C(=O)O)NC1=O) [SEQ ID NO: 1]”?
A: glomerular lesion (sclerosis), tubular atrophy and fibrosis (THR-123 p.o. 5 mg/Kg/day from week 6 to 9): improved glomerular lesion (sclerosis) and tubular atrophy and fibrosis; Mac-1 positive macrophage accumulation (week 6 to 9 treatment): inhibited accumulation of macrophage; blood urea nitrogen (week 6 to 9 treatment): decreased; cells exhibiting an EMT program (FSP-1 and E-cadherin positive) (week 6 to 9 treatment): significantly decreased the number of cells exhibiting an EMT program; expression of fibronectin and type I collagen (week 6 to 9 treatment): decreased expression of matrix components such as fibronectin and type I collagen; phospho-smad1/5 accumulation (week 6 to 9 treatment): increased accumulation of phospho-Smad1/5

Reference: US20160058829A1, “ANTI-FIBROTIC PEPTIDES AND THEIR USE IN METHODS FOR TREATING DISEASES AND DISORDERS CHARACTERIZED BY FIBROSIS” (Thrasos Innovation, Inc., priority 2011, published 2016)
